Assay results as given in article PMC3586484, “Comparative Cytochrome P450 In Vitro Inhibition by Atypical Antipsychotic Drugs” (ISRN Pharmacology, 2013).

Assays:
CYP2D6 [1] = molecular target: T1, CYP2D6 (Homo sapiens, UniProt P10635); settings: cited from earlier work
CYP2D6 [2] = molecular target: T1, CYP2D6; assay: biochemical
Source text: The composition of the mobile phase was 40% acetonitrile: 60% acetic acid (0.1%) (vol/vol).

CYP3A [3] = assay: Inhibition of CYP3A-mediated midazolam 1′-hydroxylation in human liver microsomes; type: in vitro ADME; settings: for Inhibitory potency ([inhibitor]/K i), CYP3A (1-hydroxylation): relative to the mean of reported therapeutic concentrations
Description: (§1) The mass spectrometer was run in the positive ion mode. Nitrogen as the drying gas was supplied at a flow of 10 L/minutes and at a temperature of 350°C.

[4] = reported therapeutic concentrations; ref Kirchherr and Kühn-Velten [18]; cited from earlier work
CYP3A [5] = assay: Inhibition of CYP3A-mediated midazolam 4′-hydroxylation in human liver microsomes; type: in vitro ADME; settings: abaperidone up to 20 μM
Description: as §1

CYP2C9 = CYP2C9 (Homo sapiens, UniProt P11712); assay: Inhibition of CYP2C9-mediated diclofenac 4′-hydroxylation in human liver microsomes; settings: 15 μM diclofenac, antipsychotics 0.05 to 50 μM, abaperidone up to 20 μM
Chain of CYP2C9 (P11712 whole entry): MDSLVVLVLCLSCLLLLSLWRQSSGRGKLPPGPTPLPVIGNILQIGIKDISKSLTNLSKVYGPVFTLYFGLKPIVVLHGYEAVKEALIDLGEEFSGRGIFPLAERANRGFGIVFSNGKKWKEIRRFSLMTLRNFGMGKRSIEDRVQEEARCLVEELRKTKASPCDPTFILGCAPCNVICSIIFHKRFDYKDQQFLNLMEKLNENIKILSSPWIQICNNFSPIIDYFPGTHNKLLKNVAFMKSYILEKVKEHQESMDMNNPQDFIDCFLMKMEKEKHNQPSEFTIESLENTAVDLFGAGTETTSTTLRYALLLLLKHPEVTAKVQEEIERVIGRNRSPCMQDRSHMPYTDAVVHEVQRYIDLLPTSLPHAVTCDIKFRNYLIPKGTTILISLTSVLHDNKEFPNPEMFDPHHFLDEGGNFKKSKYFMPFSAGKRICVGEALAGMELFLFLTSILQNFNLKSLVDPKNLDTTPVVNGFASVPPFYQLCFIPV
Description: Inhibition studies on four different CYP isoform-specific substrates were carried out in human liver microsomes (Gentest Corporation, Woburn, MA). Assessed reactions were phenacetin O-deethylation for CYP1A2, (+/−)-bufuralol 1′-hydroxylation for CYP2D6, diclofenac 4′-hydroxylation for CYP2C9, and midazolam 1′- and 4′-hydroxylation for CYP3A. The different antipsychotics were dissolved in methanol and serially diluted with 100 mM tris buffer (pH = 7.5) to obtain final concentrations ranging from 0.05 to 50 μM. Abaperidone was an exception and was dissolved in hot water up to a maximum concentration of 20 μM.
Reactions were started by adding microsomal protein and the mix was then vortexed and incubated at 37°C for 30 min. The process was stopped by the addition of acetonitrile and incubation on ice during 10 minutes. Samples were then centrifuged at 10,000 g for 3 minutes, and the supernatant was taken for subsequent HPLC analysis. Control inhibition studies were carried out with prototypic inhibitors in increasing concentrations up to 20 μM, namely, furafylline (CYP1A2), quinidine (CYP2D6), sulphaphenazole (CYP2C9), and ketoconazole (CYP3A).
The effect of antipsychotics on the rate of CYP-catalyzed probe substrates was expressed as a percentage of the control activity with no antipsychotic present.

T1 sequence (P10635 whole entry): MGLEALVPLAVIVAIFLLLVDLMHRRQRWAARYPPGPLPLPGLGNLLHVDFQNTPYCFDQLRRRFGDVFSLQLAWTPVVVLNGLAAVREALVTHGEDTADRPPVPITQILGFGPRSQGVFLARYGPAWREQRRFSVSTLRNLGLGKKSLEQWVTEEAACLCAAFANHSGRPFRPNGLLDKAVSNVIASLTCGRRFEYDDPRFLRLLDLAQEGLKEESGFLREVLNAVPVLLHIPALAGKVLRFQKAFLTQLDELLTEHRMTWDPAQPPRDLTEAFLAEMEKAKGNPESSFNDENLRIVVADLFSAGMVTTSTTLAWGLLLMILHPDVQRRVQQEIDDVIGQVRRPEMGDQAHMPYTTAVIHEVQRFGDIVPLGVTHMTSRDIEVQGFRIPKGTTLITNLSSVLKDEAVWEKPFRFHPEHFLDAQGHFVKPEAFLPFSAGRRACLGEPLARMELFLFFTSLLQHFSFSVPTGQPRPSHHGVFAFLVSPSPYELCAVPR

SMILES: O=C(CCCN1CCC(O)(c2ccc(Cl)cc2)CC1)c1ccc(F)cc1 [Haloperidol]
- Inhibition of CYP2D6 (in words, literature) (CYP2D6 [1]): inhibitory effect

SMILES: COc1ccc2c(c1)N(C[C@H](C)CN(C)C)c1ccccc1S2 [Levomepromazine]
- IC50 (CYP2D6 [2]): 25.5 µM
- Ki (CYP2D6 [2]): 12.8 µM
- Ki at 30 min (CYP3A [3]; human, human liver microsomes, pH 7.5, probe midazolam (1′-hydroxylation), 10 μM, estimate obtained from IC50 as described in [17] (IC50-to-Ki tool), read-out: K i, CYP3A (1-hydroxylation)): 15 µM
- inhibition at 30 min (CYP3A [3]; pH 7.5, probe midazolam (1′-hydroxylation), 10 μM, human liver microsomes, inhibitor 0.05 to 50 μM, read-out: I max (maximum inhibition), CYP3A (1-hydroxylation)): 58.2%
- IC50 at 30 min (CYP3A [3]; pH 7.5, probe midazolam (1′-hydroxylation), human liver microsomes, 10 μM midazolam, 30 min 37°C): 30 µM
- Inhibitory potency ([inhibitor]/K i), CYP3A (1-hydroxylation) (CYP3A [3]): 0.0083
- Therapeutic range [4]: 0.05 to 0.2 µM

SMILES: Cc1cc2c(s1)Nc1ccccc1N=C2N1CCN(C)CC1 [Olanzapine]
- Therapeutic range [4]: 0.06 to 0.25 µM

SMILES: Cc1nc2n(c(=O)c1CCN1CCC(c3noc4cc(F)ccc34)CC1)CCCC2 [Risperidone]
- Inhibitory potency ([inhibitor]/K i), CYP3A (1-hydroxylation) (CYP3A [3]): 0.0092

SMILES: O=c1c(CO)coc2cc(OCCCN3CCC(c4noc5cc(F)ccc45)CC3)ccc12 [abaperidone, 7-[3-[4-(6-fluoro-1,2-benzisoxazol-3-yl)-piperidin-1-yl]propoxy]-3-(hydroxymethyl)chromen-4-one]
- Inhibition of CYP3A midazolam 1′-hydroxylation (in words) (CYP3A [3]; human liver microsomes, abaperidone up to 20 μM): did not cause a significant inhibition
- Inhibition of CYP3A midazolam 4′-hydroxylation (in words) (CYP3A [5]): did not cause a significant inhibition
- Inhibition of CYP2C9 (in words) (CYP2C9): did not cause a significant inhibition

SMILES: CN1CCN(C2=Nc3cc(Cl)ccc3Nc3ccccc32)CC1 [clozapine]
- Inhibition of CYP2D6 (in words, literature) (CYP2D6 [1]): inhibitory effect
